Where two headings read alike, the source gives them in different places.
Assays:
chromaffin cells = assay: Cell-attached membrane perforation test (capacitive charging transient); assay type: cell-based, mouse; conditions: 18 μM in patch pipette; 10 minutes after gigaseal formation
From the text: FIGS. 5A-5H depict data from various experiments related to characteristics of RubpyC17-loaded cells. […] Inset images shown to the right of trace confirmed proper integration of RubpyC17 in patched cells. FIGS. 5C-5E show the light-induced action potential firing in chromaffin cells was not due to biophysical changes in voltage-gated ion channels as there were no significant changes in current-voltage relationships (C-D) nor in steady-state activation curve (E) in RubpyC17-loaded chromaffin cells before (open circle) or during ([…]) light illumination. […] Peak inward currents from each stimulation jump were plotted against corresponding stimulating voltages (n=6). […] Data from representative cell is shown (n=5). […] Currents resulting from capacitor-like behavior of chromaffin cell membranes during hyperpolarizing jumps to −85 mV from a resting membrane potential of −80 mV were recorded 5 min following giga-seal formation for amphoterecin B (bottom trace) or 10 min following giga-seal formation for RubpyC17 (top trace).
Finally, to test whether illumination of RubpyC17 incorporated in cell membranes causes nonspecific membrane poration or other damage, 18 μM RubpyC17 was loaded inside a patch pipette and attached to a cell (gigaseal formation) in the cell-attached configuration. […]

[1] = cited from earlier work
INS cells = assay: Whole cell patch clamp, current-clamp membrane potential under blue light; assay type: cell-based, rat; conditions: for light-induced increase in membrane potential (depolarization): 10 μM ~2 min preincubation, 488 nm
Method: Membrane potential was monitored using whole cell patch clamp in current-clamp mode. Cultured cells (INS and HEK293) were plated on a glass-bottomed culture dishes 1-3 days prior to recording. Cells were incubated in standard extracellular solution with or without 10 μM RubpyC17 compound for approximately 1.5-2 minutes, then washed and incubated with standard extracellular solution without additional supplementation, or with 2-5 mM ascorbate, 100 μM sodium ferrocyanide, or 100-200 μM potassium ferricyanide, as indicated. The chamber was transferred to the microscope stage. Extracellular solution consisted of 140 mM NaCl, 2.8 mM KCl, 10 mM HEPES, 1 mM MgCl2, 2 mM CaCl2, 10 mM glucose, pH adjusted to 7.3, and osmolarity adjusted to 300-310. Conventional whole-cell patch clamp recordings were performed with an EPC-9 amplifier and Pulse software (HEKA Electronics). Pipette electrodes of 1.8-3.5 Mohm were fire polished before use. Intracellular solution consisted of: 145 mM KCl, 10 mM NaCl, 1 mM MgCl2, 1 mM EGTA, 2 mM ATP, 0.3 mM GTP and 10 mM HEPES, pH adjusted to 7.3 and osmolarity adjusted to 290-300 mOsm. To monitor changes in membrane voltage/potential, cells were patch clamped in current-clamp mode. Access resistances were in the range of 3-8 Mohm. Using Pulse, membrane potentials were recorded before, during and after illumination by the argon ion laser at 488 nm with an irradiance value of 0.458 mE s^−1 m^−2 or by a xenon lamp source through a 470/40 nm bandpass excitation filter with an irradiance value of 0.480 mE s^−1 m^−2. […]
Initial attempts were tied to INS and HEK cells, both cells that are not excitable under normal conditions (INS cells were maintained in low glucose <3 mM to prevent action potentials). […] To monitor the plasma membrane potential, the cells were patch-clamped in whole-cell configuration in current-clamp mode and membrane voltages were recorded while illuminating the cell at 488 nm (0.46-0.48 mE s^−1 m^−2), though other wavelengths are useful, depending on the embodiment.

mouse chromaffin cells = assay: Carbon fiber amperometry of light-triggered secretion; assay type: cell-based
Method: Carbon fiber electrodes were prepared using established methodology and coupled to an EPC10 amplifier. A+800 mV constant voltage was applied to the electrode relative to the Ag/AgCl bath electrode. The amperometry recordings were sampled at 4 kHz using Pulsemaster (HEKA). Extracellular composition consisted of 120 mM NaCl, 20 mM KCl, 10 mM HEPES, 1 mM MgCl2, 2 mM CaCl2, 10 mM glucose, pH adjusted to 7.2-7.4, and osmolarity adjusted to 290-300. Light stimulation in the blue spectrum originated from a xenon lamp source through a 470/40 nm bandpass excitation filter. The duration of illumination varied and is indicated by bars on figures.
Action potential firing triggers secretion of norepinephrine and epinephrine from adrenal chromaffin cells, which can be readily detected by the technique of carbon-fiber amperometry, thus serving as a surrogate to detect action potential firing. […] Out of 18 RubpyC17-loaded cells tested, 15 cells (83%) experienced increased secretion by at least 100-fold during light illumination. Unlike the changes in light-induced depolarization, light-induced changes in secretion appeared to be more transient. One possible explanation for this is that at any moment in time, there are only a small number of release-competent vesicles—the so-called readily releasable pool of vesicles—and maintained stimulation causes rapid depletion of the readily releasable pool of vesicles in the initial phase of stimulation.

RCS rats = assay: Retina histology / pathology after intravitreal injection; assay type: in vivo, rat
From the text: This finding was reproduced in 3 of 3 RCS rats injected with Rubpy-C17, and in 2 of 2 control (sham injection) RCS rats.

## [Ru(bpy)2(bpy-C17)](PF6)2 [RubpyC17]
Chromaffin cells
  capacitive charging transient (membrane perforation): an increase in the capacitive charging transient was not detected
[1]; photo-activated RubpyC17 to oxidant ferricyanide, aqueous solution
  electron transfer rate ket: ~6.5e+09 M⁻¹ s⁻¹
[1]; reductant ascorbate to photo-activated RubpyC17
  electron transfer rate ket: ~2e+07 M⁻¹ s⁻¹
INS cells; 2 mM ascorbate
  light-induced increase in membrane potential (depolarization): 15.9 ± 4.6 mV
INS cells; absence of ascorbate
  light-induced increase in membrane potential (depolarization): 9.8 ± 4.5 mV
INS cells; NMDG for sodium, cesium for potassium, ascorbate present
  light-triggered depolarization with non-permeating ions: still persisted
Mouse chromaffin cells; 2 μM RubpyC17, 488 nm
  light-triggered secretion (amperometric spikes): exhibited numerous amperometric current spikes
Mouse chromaffin cells; 15 of 18 RubpyC17-loaded cells
  cells with increased secretion during light illumination: 83%
Mouse chromaffin cells; responding cells
  increase in secretion during light illumination: at least 100 fold
RCS rats; 3 days after injection, preliminary
  histology of the retina: no evidence of retinal cell death or white blood cell infiltrates
RCS rats; eyes injected with Rubpy-C17
  initial pathology studies: absence of obvious signs of deleterious effects
